Source: patent US6440434B1, “Skin care composition” (Conopco, Inc., priority 1999, dated 2002)
Read-outs that look alike come from different tables or passages of the source.

How the values were obtained:
[1] = system: acyl CoA retinol transferase (ARAT); assay: in vitro Microsomal Assay of retinol esterification, ARAT catalyzed (retinyl palmitate); assay type: biochemical, bovine; conditions: solvent blank = 100% ester formation
Experimental: (§1) A solution containing 0.1 M sodium phosphate pH 7 buffer, 5 mM dithiothreitol, 2 mg/ml bovine serum albumin, 40 micromolar palmitoyl CoA, 40 micromolar dilauroyl phosphatidyl choline, 10 micromolar retinol and a test compound or solvent blank, was incubated for 1 hour at 37° C. with a microsomal fraction isolated from bovine retinal pigment epithelial cells. After incubation, the reaction was quenched by addition of an equal volume of ethanol, and the retinyl esters formed (retinyl palmitate from the ARAT catalyzed reaction, and retinyl laurate from the LRAT catalyzed reaction) were extracted with hexane.

[2] = target: T1, lecithin retinol acyl transferase (LRAT) (Bos taurus, UniProt Q9BGL2); assay: in vitro Microsomal Assay of retinol esterification, LRAT catalyzed (retinyl laurate); assay type: biochemical, bovine; conditions: solvent blank = 100% ester formation
T1 sequence (Q9BGL2 1-230): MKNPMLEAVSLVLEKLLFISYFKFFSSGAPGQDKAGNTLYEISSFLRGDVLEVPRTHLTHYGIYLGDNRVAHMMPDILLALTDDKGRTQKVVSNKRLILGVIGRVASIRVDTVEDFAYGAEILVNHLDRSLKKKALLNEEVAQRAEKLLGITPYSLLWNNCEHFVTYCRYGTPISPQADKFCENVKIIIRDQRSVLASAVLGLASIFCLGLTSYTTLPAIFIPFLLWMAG
Experimental: as §1

[3] = system: LRAT and ARAT catalyzed retinol esterification; assay: in vitro Microsomal Assay, retinol esterification overall (statements in words); assay type: biochemical, bovine
Experimental: as §1

[4] = system: decorin synthesis in human dermal fibroblasts; assay: Dot blot assay for decorin in dermal fibroblast conditioned medium; assay type: cell-based
Experimental: (§2) Primary human foreskin fibroblasts at passage 2 (P2) were seeded into 12-well plates at 10000 cells/cm^2 and maintained for 24 hours in an atmosphere of 5% carbon dioxide and 4% oxygen in Dulbeccos Modified Eagles Medium (DMEM) supplemented with 10% foetal calf serum. After this time the cells were washed with serum free DMEM and then incubated in fresh serum free DMEM for a further 60 hours. The fibroblast monolayers were then washed again with serum free DMEM. Test reagents and vehicle controls were added to the cells in triplicate in a final volume of 0.4 ml/well fresh serum free DMEM and incubated for a further 24 hours. This fibroblast conditioned medium was either analysed immediately or snap frozen in liquid nitrogen and stored at −70° C. for future analysis. The cells were then counted and data from the dot-blot analysis subsequently standardised to cell number.
(§3) Samples of conditioned medium from dermal fibroblasts treated with vehicle (as a control) or test reagents were supplemented with 20 mM dithiothreitol (1:10 dilution of 200 mM stock solution) and 0.1% sodium dodecylsulphate (1:100 dilution of 10% stock solution), mixed well and then incubated at 75° C. for 2 minutes. A standard for the assay was generated by serial dilution of neat fibroblast conditioned medium from fibroblasts seeded at 10000 cells/cm^2 in a 175 cm^2 flask and maintained in serum free DMEM as described above.
Assay samples were subsequently applied in triplicate to a prewetted sheet of Immobilon-P transfer membrane using the 96-well Bio-Dot Apparatus from Bio-Rad as described in the manufacturers guidelines. Approximately 200 μl of medium was applied per well. The medium was allowed to filter through the membrane under gravity (30 minutes) after which the membrane was washed twice with PBS (200 μl). These PBS washes were allowed to filter through the membrane under gravity (2×15 minutes). The Bio-Dot apparatus was then attached to a vacuum manifold and a third and final PBS wash carried out under suction. The apparatus was disassembled, the membrane removed and quickly cut as required before being placed in blocking buffer overnight at 4° C. Membranes prepared for decorin analysis were blocked with 3% (w/v) BSA/0.1% (v/v) Tween 20 in PBS, whilst those for procollagen-I analysis were blocked with 5% (w/v) non fat dried milk powder/0.05% Tween 20 in PBS.
Following this the Immobilon strips were again washed with TBS/Tween 20 (3×5 minutes) before being allowed to dry in air at room temperature. The dried membranes were wrapped in cellophane and exposed to a Molecular Dynamics storage phosphor screen for 16-18 hours. At the end of this time the exposed screen was scanned by a phosphorimager (Molecular Dynamics Phosphorimager SF) using ImageQuant™ software. Dot intensity was assessed by computer-assisted image analysis using the quantification tools in ImageQuant™, standardised to cell number and the effects of various test reagents on decorin and procollagen-I synthesis were determined relative to a vehicle treated control value of 100 arbitrary units.

[5] = system: procollagen-I synthesis in human dermal fibroblasts; assay: Dot blot assay for procollagen-I in dermal fibroblast conditioned medium; assay type: cell-based; conditions: 0.01 μM of each active; for Procollagen 1: Table 7, PA/Retinol set, control = 100%
Experimental: as §2, §3
Assay samples were subsequently applied in triplicate to a prewetted sheet of Immobilon-P transfer membrane using the 96-well Bio-Dot Apparatus from Bio-Rad as described in the manufacturers guidelines. […]
Following this the Immobilon strips were again washed with TBS/Tween 20 (3×5 minutes) before being allowed to dry in air at room temperature. […] Dot intensity was assessed by computer-assisted image analysis using the quantification tools in ImageQuant™, standardised to cell number and the effects of various test reagents on decorin and procollagen-I synthesis were determined relative to a vehicle treated control value of 100 arbitrary units.

[6] = Table 7, PA/trans Retinoic acid set, 0.01 μM of each active, control = 100%

Row | Compound | % INHIBITION, ARAT ([1]; 100 μM test compound) [%] | % INHIBITION, LRAT ([2]; 100 μM test compound) [%] | other results
1 | CCCCCCCCCCCCC/C=C/[C@@H](O)[C@H](CO)NC(C)=O [Acetyl Sphingosine] | 62 | 50 | % INHIBITION, ARAT ([1]; 10 μM test compound): 19%; % INHIBITION, LRAT ([2]; 10 μM test compound): 10%; retinol esterification inhibition (in words) [3]: potent retinol esterification inhibitors
2 | CCC(=O)/C=C/C1C(C)=CCCC1(C)C (stereo not drawn) [Alpha methyl ionone] | 67 | 77 | 
3 | C/C=C/C(=O)C1=C(C)CCCC1(C)C [Beta damascone] |  | 92 | % INHIBITION, LRAT ([2]; 10 μM test compound): 52%
4 | CC1=CCC(CCC(C)CO)C1(C)C (stereo not shown) [Brahmanol] | 70 | 75 | 
5 | C/C=C/C(=O)C1=C(C)C=CCC1(C)C [Damascenone] |  | 79 | % INHIBITION, LRAT ([2]; 10 μM test compound): 29%
6 | C/C=C/C(=O)C1C(C)C=CCC1(C)C (stereo not shown) [Delta damascone] |  | 95 | % INHIBITION, LRAT ([2]; 10 μM test compound): 64%
7 | CCOC(=O)C1=C(C)C=CCC1(C)C [Ethyl saffranate] |  | 49 | 
8 | CC(C)=CCCC(C)=CCCC(C)=CCO [Farnesol] | 43 |  | % INHIBITION, ARAT ([1]; 10 μM test compound): 20%; retinol esterification inhibition (in words) [3]: inhibit retinol esterification
9 | CC(=O)/C(C)=C/C1C(C)=CCCC1(C)C (stereo not shown) [Gamma methyl ionone] |  | 38 | 
10 | CC(C)=CCC/C(C)=C/CC/C(C)=C/CC/C(C)=C/CO [Geranyl Geraniol] | 81 |  | % INHIBITION, ARAT ([1]; 10 μM test compound): 38%; retinol esterification inhibition (in words) ([3]; listed as Geranyl geraniol): substantially more potent esterification inhibitor, than farnesol; retinol esterification inhibition (in words) ([3]; listed as geranyl geraniol): inhibit retinol esterification
11 | CC=CC(=O)C1CCC(C)(C)C=C1C (stereo not shown) [Isodamascone] | 80 | 92 | 
12 | CCCCC/C=C\C/C=C\CCCCCCCC(=O)N(CCO)CCO [Linoleamide-DEA (LODEA), Linoleamide-DEA] |  | 51 | % INHIBITION, LRAT ([2]; 10 μM test compound): 11%; retinol esterification inhibition (in words) [3]: potent retinol esterification inhibitors
13 | CCCCC/C=C\C/C=C\CCCCCCCC(=O)NCCO [Linoleamide-MEA (LOMEA), Linoleamide-MEA] |  |  | retinol esterification inhibition (in words) [3]: potent retinol esterification inhibitors; Decorin ([4]; Table 6, 0.1 μg/ml, 24 hours, vehicle control = 100): 133.9%
14 | CC(C)(O)CCCC1=CCC(C=O)CC1 (stereo not shown) [Lyral] | 76 |  | 
15 | CCCCCCCCCCC/C=C\CCCCC(=O)O [PA, Petroselinic acid] |  |  | Procollagen-I ([5]; Table 6, 24 hours, vehicle control = 100): 85.1%; Procollagen 1 [5]: 86.0%; Decorin ([4]; Table 6, 0.01 μM, 24 hours, vehicle control = 100): 101.8%; Decorin ([4]; Table 7, PA/Retinyl Linoleate set, 0.01 μM, control = 100%): 107.5%; Decorin [4, 6]: 100.5%
16 | CC1=C(/C=C/C(C)=C/C=C/C(C)=C/CO)C(C)(C)CCC1 [Retinol, reference compound] |  |  | Procollagen 1 [5]: 95.0%
17 | CCCCC/C=C\C/C=C\CCCCCCCC(=O)OC/C=C(C)/C=C/C=C(C)/C=C/C1=C(C)CCCC1(C)C [Retinyl Linoleate] |  |  | Decorin ([4]; Table 7, PA/Retinyl Linoleate set, 0.1 μM, control = 100%): 109.1%
18 | CCCC(O)CCC1C(C)CCCC1(C)C (stereo not shown) [Timberol] |  | 33 | 
19 | CC(=O)c1cc2c(cc1C)C(C)(C)C(C)CC2(C)C (stereo not shown) [Tonalid] | 50 |  | 

Row | Compound | % INHIBITION, ARAT ([1]; 100 μM test compound) [%] | % INHIBITION, LRAT ([2]; 100 μM test compound) [%] | other results
20 | Nc1ncnc2nc[nH]c12 [adenine, reference compound] | 0 |  | 
21 | CC12CCC(CC1=O)C2(C)C (stereo not shown) [camphor, reference compound] | 0 |  | 
22 | C=C(C)C1CC=C(C)C(=O)C1 (stereo not shown) [carvone, reference compound] | 0 |  | 
23 | O=CC=Cc1ccccc1 [cinnamaldehyde, reference compound] | 0 |  | 
24 | O=C(NCO)N(CO)C1(CO)C(=O)NC(=O)N1CO (stereo not shown) [diazolidinyl urea, reference compound] | 0 |  | 
25 | CC(=O)CCC1C(C)=CCCC1(C)C (stereo not drawn) [dihydro alpha ionone, reference compound] | 13 | 18 | 
26 | CC12CCC(CC1)C(C)(C)O2 [eucalyptol, reference compound] | 0 |  | 
27 | CC12CCC(C1)C(C)(C)C2O (stereo not shown) [fenchyl alcohol, reference compound] | 12 |  | 
28 | CC1=CC(C)C(CO)C(C)C1 (stereo not shown) [isocyclogeraniol, reference compound] | 18 | 16 | 
29 | Cc1ncc(C[n+]2csc(CCO)c2C)c(N)n1 [thiamine, reference compound] | 0 |  | 
30 | Cc1ccc(C(C)C)c(O)c1 [thymol, reference compound] | 0 |  | 
31 | CC1=C(/C=C/C(C)=C/C=C/C(C)=C/C(=O)O)C(C)(C)CCC1 [trans Retinoic acid, reference compound] |  |  | Decorin [4, 6]: 102.8%
32 | N[C@@H](Cc1c[nH]c2ccccc12)C(=O)O [tryptophan, reference compound] | 0 |  | 
33 | O=c1cc[nH]c(=O)[nH]1 [uracil, reference compound] | 0 |  | 
34 | COc1cc(C=O)ccc1O [vanillin, reference compound] | 0 |  | 
35 | Isobutyl ionone | 8 | 45 | 
36 | Sandalone | 23 | 12 | 
37 | Sandanol | 15 | 43 | 
